“Also recorded” adds a separate entry of the source. Like-named read-outs stand apart in the source and are kept apart here.

Test [1] concerns PTHrP production in SCC 2/88 cells. As to conditions: Merryman et al 1993, cited from earlier work.
The subject of test [2] is murine squamous cell carcinoma (SCC) tumor model. As to conditions: in vitro and in vivo; cited from earlier work.
Test [3] relates to human and rat liver cancer cell lines. As to conditions: cited from earlier work.
The test system of another test is SCC 2/88 cells. In words: Growth of SCC 2/88 cells by fluorescence DNA concentration analysis. It is filed as cell-based, canine. Particulars: three-day treatment. An excerpt: Cell culture. […] Each experiment was run in triplicate.
Test [4] deals with human prostate cancer cell line. Particulars: cited from earlier work.
In test [5] the test system is PTHrP production in human squamous cell lines. As to conditions: cited from earlier work.
The subject of the next test is osteosarcoma cell lines. Particulars: four canine osteosarcoma cell lines; cited from earlier work.
Test [6] deals with involucrin in SCC 2/88 cells. Briefly: Cell differentiation: involucrin by SDS-PAGE and Western blot in SCC 2/88 cells. The format is cell-based, canine. Particulars: post-confluent cells, up to 7 days; for involucrin expression (anti-involucrin reactive bands) compared to vehicle: 10^−7 M; for involucrin expression (anti-involucrin reactive bands): 10^−9 M. As to the method: Cell differentiation. Involucrin was extracted from cultured SCC 2/88 cells grown in 175 cm2 culture flasks (Becton Dickinson, Franklin Lakes, N.J.) for one week. Post confluent cells were treated with either vehicle, 1,25(OH)2D3, EB 1089, or analog V at concentrations 10^−7 M and 10^−9 M for up to 7 days. Cells were washed and released from the culture flask with phosphate buffered saline containing 20 mM EDTA. Cells were disrupted with a Branson sonifier (Branson Ultrasonic Corporation, Danbury, Conn.) at a setting of 6 for 3×30 seconds and centrifuged at 100,000 G for 30 minutes at 10° C. The supernatant (cytosol) was made 10% in glycerol and 62.5 mM in Tris-HCl (pH 6.8) and heated for 10 minutes at 100° C. The denatured proteins were removed by centrifugation at 15,000 G for 15 minutes. Involucrin in the supernatant was collected stored at −70° C. until Western blot analysis was performed.
Extracted proteins (20 μg) were separated by electrophoresis through 7.5 % sodium dodecyl sulfate (SDS)-polyacrylamide gel, and transferred to nitrocellulose membrane with use of a semi-dry transferred technique (Bio-Rad laboratories, Hercules, Calif.). The membrane was then blocked in blocking solution (10% dry milk, 0.05% Tween 20 in phosphate buffered saline) overnight at 4° C. The preblocked membrane was incubated in mouse monoclonal antibody against involucrin (Research Diagnotics Inc., Flanders, N.J.) 1:500 for an hour and extensively washed in PBS (pH 7.4) containing 0.05% Tween 20. The blot was then incubated in goat anti-mouse IgG (horseradish peroxidase) (Bio-Rad laboratories, Hercules, Calif.) 1:500 for an hour. After further washing in phosphate buffered saline containing 0.05% Tween 20, the blot was developed for 1 minute in the LumiGLO Chemiluminescent substrate (Kirkegaard and Perry laboratories, Gaithersburg, Md.), and then exposed to x-ray film for 1–5 seconds. After exposure, the membrane was stripped and incubated with mouse monoclonal anti-β-actin (Sigma, Saint Louis, Mo.) to normalize for protein loading. AlphaImager™ Alpha Innotech Corporation, San Leandro) measured the density of involucrin bands.
(In western blotting, separated proteins are transferred to a membrane and probed.)

Test [7] relates to TGF-β mRNA in SCC 2/88 cells. In words: Northern blot analysis of TGF-β mRNA expression in SCC 2/88 cells. It is filed as cell-based, canine. Particulars: 10^−7 M, 0, 3, 6, 12 and 24 hrs.
Test [8] has as its system thyroid anaplastic carcinoma cell lines. Particulars: four thyroid anaplastic carcinoma cell lines; cited from earlier work.
In test [9] the test system is PTHrP mRNA in SCC 2/88 cells. Briefly: Northern blot analysis of PTHrP mRNA expression in SCC 2/88 cells. It is filed as cell-based, canine.

On to `C=C1/C(=C\C=C2/CCC[C@]3(C)[C@@H]([C@H](C)CCCC(C)(C)O)CC[C@@H]23)C[C@@H](O)C[C@@H]1O` [1,25(OH)2D3], for which, in [1], the “PTHrP production in SCC 2/88 cells” value is given as “promote PTHrP production”. In addition, in [1] (listed as 1,25-(OH)2D3), the “PTHrP production in SCC 2/88 cells” value is “stimulates production of parathyroid hormone-related protein”. In addition, in test [2], the antitumor effects entry is given as “significant antitumor effects”. Moreover, the anti-proliferative activity entry in test [3] was “anti-proliferative activity in some human and rat liver cancer cell lines”. Besides, the “growth of SCC 2/88 cells (concentration of DNA)” value (from here on “growth of SCC 2/88 cells”) with SCC 2/88 cells (10^−7 M) is reported as “inhibit cell proliferation; also recorded: significantly reduced the concentration of DNA”. Moreover, the “cell growth and differentiation” value in test [4] is “inhibits cell growth and promotes differentiation in a dose-dependent manner”. Further, the PTHrP production result in [5] is recorded as “inhibits PTHrP production”. In the test on osteosarcoma cell lines, the alkaline phosphatase activity result is given as “increases alkaline phosphatase activity in one cell line”, the osteocalcin production entry is on record as “osteocalcin production in two lines” and the “type I collagen production” value was “type I collagen production in three lines”. Moreover, in test [6], the “involucrin expression (anti-involucrin reactive bands) compared to vehicle” value (shortened to “involucrin expression … compared to vehicle”) is listed as “diminished involucrin expression” and the “involucrin expression (anti-involucrin reactive bands)” value is reported as “diminished involucrin expression”. Moreover, the “TGF-β mRNA expression compared to vehicle-treated control” value in [7] is on record as “did not differ significantly”. Moreover, the cell growth result in test [8] is recorded as “diphasic cell growth in three of the four cell lines”.

Turning to `C=C1/C(=C\C=C2/CCC[C@]3(C)[C@@H]([C@H](C)OCCC(C)(C)O)CC[C@@H]23)C[C@@H](O)C[C@@H]1O` [22-oxacalcitriol], the cell growth result in test [8] is given as “dose-dependent inhibition of cell growth in all four of the cell lines”.

Regarding `C=C1/C(=C\C=C2/CCC[C@]3(C)[C@@H]([C@H](C)/C=C/C=C/C(O)(CC)CC)CC[C@@H]23)C[C@@H](O)C[C@@H]1O` [EB 1089, 22,24-diene-24a,26a,27a-trihomo-1α,25-dihydroxyvitamin D3], the “PTHrP production in SCC 2/88 cells” value in test [1] is on record as “promote PTHrP production”. Besides, the “growth of SCC 2/88 cells” value in the test on SCC 2/88 cells (10^−7 M) was “inhibit cell proliferation; also recorded: significantly reduced the concentration of DNA; also recorded: significantly diminished cell growth”. Moreover, the “growth of SCC 2/88 cells” value with SCC 2/88 cells (10^−9 M) is reported as “inhibits cell growth significantly; also recorded: significantly reduced the concentration of DNA; also recorded: reduced cell growth at a lower confidence level”. In [6], the “involucrin expression … compared to vehicle” value was “more weakly defined than that of the vehicle-treated control; also recorded: diminished involucrin expression; also recorded: weak or substantially absent anti-involucrin reactive bands” and the “involucrin expression (anti-involucrin reactive bands)” value is recorded as “diminished involucrin expression; also recorded: diminished levels of involucrin”.

For the compound `C=C1C(=CC=C2CCCC3(C)C(C(C)CC#CC(C)(C)O)=CCC23)CC(O)CC1O` (stereo not drawn) [analog V, 1,25-dihydroxy-16-ene-23-yne-vitamin D], the “PTHrP production in SCC 2/88 cells” value in test [1] is recorded as “promote PTHrP production”. In addition, the “growth of SCC 2/88 cells” value in the test with SCC 2/88 cells (10^−7 M) was “inhibit cell proliferation; also recorded: significantly reduced the concentration of DNA; also recorded: significantly diminished cell growth”. The “growth of SCC 2/88 cells” value in the test on SCC 2/88 cells (10^−9 M) is given as “no significant inhibition of cell growth”. Also, in test [6], the “involucrin expression … compared to vehicle” value is reported as “more weakly defined than that of the vehicle-treated control; also recorded: diminished involucrin expression; also recorded: weak or substantially absent anti-involucrin reactive bands” and the “involucrin expression (anti-involucrin reactive bands)” value is reported as “more intense than those of the other treated groups; also recorded: stronger anti-involucrin reactive band”.

As to TGF-β, the “increase in PTHrP mRNA compared to vehicle-treated control” value in test [9] (TGF-β 1.5 ng/mL, 6, 12 and 24 hr) is on record as 5- to 20 fold. In addition, the “increase in PTHrP mRNA compared with vehicle-treated control” value in test [9] (TGF-β, after 24 hr) was 2- to 20 fold.

Source of the values: patent publication US7129230B2, “Method and product for treating cancer in pets” (Nestec S.A., priority 2001, dated 2006).
